# PMC6842543, “Antiparasitic effect of synthetic aromathecins on Leishmania infantum” (BMC Veterinary Research, 2019)
# Key:
# [1] = test system: L. infantum promastigotes; experiment: In vitro iRFP L. infantum promastigotes viability assay (infrared fluorescence); assay type: cell-based, Leishmania infantum; conditions: iRFP-L. infantum promastigotes, 72 h, 26 °C, fluorescence at 708 nm; average of three experiments by duplicate; read-out: EC50 L. infantum promastigotes
# Method: (§1) Two series of aromathecins (Table 1) have been tested against both stages of L. infantum, free-living promastigotes and intracellular amastigotes harbored in mouse splenic cells. Experiments were carried out using a genetically modified L. infantum strain that constitutively produces the iRFP protein. This makes it possible to evaluate the viability of parasites measuring the fluorescence emitted at 708 nm.
# The antiparasitic activity of the compounds was assessed on the genetically modified iRFP L. infantum strain, which constitutively produces the infrared fluorescent protein (iRFP) when cells are viable. iRFP L. infantum was grown at 26 °C in M-199 medium (Gibco) supplemented with 25 mM HEPES pH 7.2, 0.1 mM adenine, 0.0005% (w/v) hemin, 2 μg/mL biopterin, 0.0001% (w/v) biotin, 10% (v/v) heat-inactivated fetal bovine serum (FBS) and an antibiotic cocktail comprising 50 U/mL penicillin and 50 μg/mL streptomycin.
# (§2) The viability of cultured parasites in the presence of different concentrations of aromathecins was determined by measuring the reduction of infrared fluorescence emitted by free-living promastigotes/amastigotes with respect to negative controls of each form of the parasite treated with DMSO (up to 0.1% final concentration) as a vehicle. […] After 72 h incubation at 26 °C, the infrared fluorescence emitted at 708 nm by viable promastigotes/amastigotes was measured in an Odyssey (Li-Cor) infrared imaging system. Similarly, the cytotoxic effect (CC50) of aromathecins on uninfected splenic explants from BALB/c mice (cells that naturally harbor the amastigote stage) was measured by the Alamar Blue (Invitrogen) assay. The selectivity index (SI) was determined as the relationship between the CC50 value and the EC50 value for amastigotes. CC50 and EC50 were calculated by nonlinear analysis using the Sigma-Plot 10.0 statistical package. The aromathecins were dissolved in DMSO and stored at − 20 °C before their use as fresh aliquots.
# L. infantum amastigotes = experiment: Ex vivo murine splenic explant culture with intramacrophagic iRFP L. infantum amastigotes; assay type: cell-based, Leishmania infantum; conditions: splenic-infecting amastigotes, ex vivo explants from infected BALB/c mice, 72 h; read-out: EC50 L. infantum amastigotes
# Method: as §1
# Primary splenocyte cultures containing intramacrophagic amastigotes were obtained from dissected spleens of female BALB/c mice infected intraperitoneally with 1.5 × 10^9 metacyclic iRFP L. infantum promastigotes, 5 weeks before their sacrifice. Mice were obtained commercially (Janvier-Labs). Animals were housed in specific-pathogen free facilities and they were euthanized by cervical dislocation without anesthesia. These protocols were approved by the Animal Care Committee of University of Leon (project license SAF2017–83575-R), which complies with European Union Legislation (2010/63/UE) and Spanish Act (RD 53/2013).
# (§3) The spleens were washed with cold phosphate-buffered saline (PBS), cut in small pieces and incubated for 20 min with 5 mL of 2 mg/mL collagenase D (Sigma) prepared in buffer (10 mM HEPES, pH 7.4, 150 mM NaCl, 5 mM KCl, 1 mM MgCl2 and 1.8 mM CaCl2). After that, the cell suspension obtained was passed through a 100 μm cell strainer, harvested by centrifugation (500×g for 7 min at 4 °C), washed twice with PBS, and cultured at 37 °C under 5% CO2 atmosphere in RPMI medium (Gibco) supplemented with 10 mM HEPES, 1 mM sodium pyruvate, 1xRPMI 1640 vitamin mix, 10% (v/v) FBS, 50 U/mL penicillin and 50 μg/mL streptomycin (Calvo-Álvarez et al., 2015).
# as §2
# Murine Splenocytes = experiment: Cytotoxicity on uninfected splenic explants (Alamar Blue); assay type: cell-based, BALB/c mice
# Method: as §3, §2
structure (smiles),measurement,setting,value
"C[C@@H]1[C@H](O)[C@@H](C)/C=C/C=C/C=C/C=C/C=C/C=C/C=C/[C@H](O[C@@H]2O[C@H](C)[C@@H](O)[C@H](N)[C@@H]2O)C[C@@H]2O[C@](O)(C[C@@H](O)C[C@@H](O)[C@H](O)CC[C@@H](O)C[C@@H](O)CC(=O)O[C@H]1C)C[C@H](O)[C@H]2C(=O)O [AMB, reference compound]",EC50,[1],800 ± 100 nM
same,EC50,L. infantum amastigotes,300 nM
same,CC50,Murine Splenocytes,> 20000 nM
